Patent US9745273B2, “Phenazine derivatives as anti-neoplastic agents and anti-infective agents” (Universitetet I Oslo, priority 2013, dated 2017)

Experiments:
mouse sarcoma model = conditions: in vivo; cited from earlier work
Solubility in water = assay type: physicochemical
From the text: In the prior art, these problems are not properly addressed. […] In DE 2016467, DE 2115660, U.S. Pat. No. 3,929,790, U.S. Pat. No. 3,937,707, WO 2008/089283, and in Alonso et al, Chem. Comm. 2004, 41, 412-413, methods to alkylate iodinin or myxin via their alkali salts is described. However, the functional groups introduced were alkyl groups, rendering the derivatives less water soluble than the parent compounds. No discussion of improvement in water solubility was described.

blood platelets = conditions: at comparable anti-AML activity; cited from earlier work
certain other bacteria = conditions: cited from earlier work
intestinal mucosa = conditions: mouse, direct infusion of supra-saturated solution into the gut through a tube; cited from earlier work
[1] = Solubility in biocompatible and organic solvents; assay type: physicochemical
From the text: However, production of nano-carriers by emulsion-evaporation merit that the compound to be encapsulated must be dissolved in an organic solvent that is immiscible with water. The present invention enables the production of iodinin-encapsulated nanocarriers—iodinin and a biodegradable polymer can be dissolved in chloroform and mixed with water to make a nano-suspension, and organic solvent evaporated to co-precipitate the polymer with iodinin. To improve the nanonization of iodinin, a polymer can be precipitated to produce nanoparticles. The advantage of incorporating iodinin itself into a biodegradable polymer is that the drug load in the formulation may be higher. The particles may be coated with monoclonal antibodies, e.g. CD11 or CD33 against AML.

rat cardiomyoblasts = conditions: at comparable anti-AML activity; cited from earlier work
[2] = tested on: leukaemia cell lines and AML-patient blasts; conditions: cited from earlier work
[3] = tested on: peripheral blood leukocytes (PBL); conditions: at comparable anti-AML activity; cited from earlier work

Row | Structure (SMILES) | activity against a mouse sarcoma model (mouse sarcoma model) | solubility in water (Solubility in water) | toxicity towards blood platelets versus DNR (blood platelets) | inhibition of growth of other bacteria (certain other bacteria) | intestinal symptoms / histological alteration of the intestinal mucosa (intestinal mucosa) | solubility in biocompatible solvents ([1]; biocompatible solvents) | solubility in organic solvents ([1]; organic solvents such as toluene and chloroform) | toxicity towards rat cardiomyoblasts versus DNR (rat cardiomyoblasts) | potency against leukaemia cell lines and AML-patient blasts [2] | effect on AML cells ([2]; iodinin extracted from marine actinomycetes bacteria) | toxicity towards peripheral blood leukocytes (PBL) versus DNR [3]
1 | [O-][n+]1c2cccc(O)c2[n+]([O-])c2cccc(O)c21 [iodinin, 1,6-dihydroxyphenazine-5,10-dioxide] | low activity | practically insoluble | less toxic than DNR | inhibit the growth | failed to cause any intestinal symptoms or histologically detectable alteration of the intestinal mucosa | poorly soluble | soluble | less toxic than DNR | particularly potent | pronounced effect | less toxic than DNR
2 | COc1cccc2c1[n+]([O-])c1cccc(O)c1[n+]2[O-] [myxin] | low activity | practically insoluble |  |  |  |  |  |  |  |  | 
